Results reported in patent US20250275991A1, “ORAL COMPLEMENT FACTOR D INHIBITORS” (BioCryst Pharmaceuticals, Inc, priority 2019, published 2025).

Biological target: Factor D (Homo sapiens, UniProt P00746)
Assay: Factor D esterolytic assay
Assay type: biochemical
Details: substrate Z-Lys-SBzl 1.29 mM, 100 mM HEPES, 500 mM NaCl, pH 7.5, 10% DMSO, tested a minimum of three times
Procedure, shortened: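 Human Factor D esterolytic assay in 100 mM HEPES, 500 mM NaCl, pH 7.5, 10% DMSO, with 1.29 mM Z-Lys-SBzl substrate. Released thiol detected with DTNB at 405 nm over 600 s, minus 690 nm background. Substrate added immediately or after room-temperature preincubation with compound. IC50 from percent inhibition relative to enzyme alone; ≥3 tests.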

Sequence of Factor D (P00746 26-253): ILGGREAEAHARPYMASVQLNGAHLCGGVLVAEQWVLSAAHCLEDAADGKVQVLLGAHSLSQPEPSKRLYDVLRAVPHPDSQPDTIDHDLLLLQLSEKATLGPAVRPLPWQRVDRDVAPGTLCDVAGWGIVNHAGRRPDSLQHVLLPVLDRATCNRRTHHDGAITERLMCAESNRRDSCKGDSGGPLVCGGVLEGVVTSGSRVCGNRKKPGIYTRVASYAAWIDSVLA

IC50 [nM]	Structure (SMILES)
< 1000	CC(=O)NCc1ccc(CC(=O)O)c(OCc2cc(-c3cccc(CN)c3)c3occc3c2)c1 [Compound 30c, 2-(4-(acetamidomethyl)-2-((7-(3-(aminomethyl)phenyl)benzofuran-5-yl)methoxy)phenyl)acetic acid]
> 10000	NC(=O)c1cc(-c2cc(COc3ccccc3CC(=O)O)cc3ccoc23)cs1 [Compound 84c, 2-(2-((7-(5-carbamoylthiophen-3-yl)benzofuran-5-yl)methoxy)phenyl)acetic acid]
< 1000	NCc1nccc(-c2cc(COc3cc(C(F)(F)F)ccc3CC(=O)O)cc3ccoc23)c1F [Compound 56f, 2-(2-((7-(2-(aminomethyl)-3-fluoropyridin-4-yl)benzofuran-5-yl)methoxy)-4-(trifluoromethyl)phenyl)acetic acid]
< 1000	CC(Oc1ccccc1CC(=O)O)c1cc(-c2cccc(CN)c2)c2occc2c1 (single isomer, unassigned; (+)) [Compound 77f, (+)-2-(2-(1-(7-(3-(aminomethyl)phenyl)benzofuran-5-yl)ethoxy)phenyl)acetic acid]
< 1000	CC(C)C(=O)Nc1ccc(CC(=O)O)c(OCc2cc(-c3cccc(CN)c3)c3occc3c2)c1 [Compound 70f]
< 1000	CCOC(=O)NC(C)c1ccc(CC(=O)O)c(OCc2cc(-c3cccc(CN)c3)c3occc3c2)c1 (single isomer, unassigned; (+)) [Compound 54g, (+)-2-(2-((7-(3-(aminomethyl)phenyl)benzofuran-5-yl)methoxy)-4-(1-(ethoxycarbonylamino)ethyl)phenyl)acetic acid]
< 1000	NCc1cccc(-c2cc(COc3ccccc3CC(=O)O)c(OCc3ccncc3)c3ccoc23)c1 [Compound 80g, 2-(2-((7-(3-(aminomethyl)phenyl)-4-(pyridin-4-ylmethoxy)benzofuran-5-yl)methoxy)phenyl)acetic acid]
< 1000	O=CNCc1nccc(-c2cc(COc3ccccc3CC(=O)O)cc3ccoc23)c1F [Compound 36f, 2-(2-((7-(3-fluoro-2-(formamidomethyl)pyridin-4-yl)benzofuran-5-yl)methoxy)phenyl)acetic acid]
< 1000	NCc1cccc(-c2cc(COc3cc(C(F)(F)F)ccc3CC(=O)O)cc3cc(F)oc23)c1 [Compound 53d, 2-(2-((7-(3-(aminomethyl)phenyl)-2-fluorobenzofuran-5-yl)methoxy)-4-(trifluoromethyl)phenyl)acetic acid]
< 1000	CC(C)CC(=O)NCc1ccc(CC(=O)O)c(OCc2cc(-c3cccc(CN)c3)c3occc3c2)c1 [Compound 28c, 2-(2-((7-(3-(aminomethyl)phenyl)benzofuran-5-yl)methoxy)-4-((3-methylbutanamido)methyl)phenyl)acetic acid]
< 1000	CC(=O)c1ccc(CC(=O)O)c(OCc2cc(-c3ccnc(CN)c3)c3oc(F)cc3c2)c1 [Compound 74d, 2-(4-acetyl-2-((7-(2-(aminomethyl)pyridin-4-yl)-2-fluorobenzofuran-5-yl)methoxy)phenyl)acetic acid]
1000 to 10000	CCC(N)c1cc(-c2cc(COc3ccccc3CC(=O)O)cc3ccoc23)cs1 (centres unmarked) [Compound 1j, 2-(2-((7-(5-(1-aminopropyl)thiophen-3-yl)benzofuran-5-yl)methoxy)phenyl)acetic acid]
< 1000	CC(C)Oc1c(COc2ccccc2CC(=O)O)cc(-c2cccc(CN)c2)c2occc12 [Compound 66f, 2-(2-((7-(3-(aminomethyl)phenyl)-4-isopropoxybenzofuran-5-yl)methoxy)phenyl)acetic acid]
< 1000	NCc1cccc(-c2cc(COc3ccccc3CC(=O)O)c(OCC(=O)O)c3ccoc23)c1 [Compound 65g, lithium 2-((7-(3-(aminomethyl)phenyl)-5-((2-(carboxymethyl)phenoxy)methyl)benzofuran-4-yl)oxy)acetate]
< 1000	Cn1ccc(COc2c(COc3ccccc3CC(=O)O)cc(-c3cccc(CN)c3)c3occc23)n1 [Compound 79g, 2-(2-((7-(3-(aminomethyl)phenyl)-4-((1-methyl-1H-pyrazol-3-yl)methoxy)benzofuran-5-yl)methoxy)phenyl)acetic acid]
< 1000	NCc1cccc(-c2cc(COc3ccccc3C(NC(=O)C3CC3)C(=O)O)cc3ccoc23)c1 (single isomer, unassigned; (-)) [Compound 51f, (−)-2-(2-((7-(3-(aminomethyl)phenyl)benzofuran-5-yl)methoxy)phenyl)-2-(cyclopropanecarboxamido)acetic acid]
< 1000	CCOC(=O)NCc1ccc(CC(=O)O)c(OCc2cc(-c3cccc(CN)c3)c3occc3c2)c1 [Compound 29c, 2-(2-((7-(3-(aminomethyl)phenyl)benzofuran-5-yl)methoxy)-4-((ethoxycarbonylamino)methyl)phenyl)acetic acid]
< 1000	CC(=O)c1ccc(CC(=O)O)c(OCc2cc(-c3cccc(CN)c3F)c3oc(F)cc3c2)c1 [Compound 76e, 2-(4-acetyl-2-((7-(3-(aminomethyl)-2-fluorophenyl)-2-fluorobenzofuran-5-yl)methoxy)phenyl)acetic acid]
< 1000	CS(=O)(=O)NCc1ccc(CC(=O)O)c(OCc2cc(-c3cccc(CN)c3)c3occc3c2)c1 [Compound 33c, 2-(2-((7-(3-(aminomethyl)phenyl)benzofuran-5-yl)methoxy)-4-(methylsulfonamidomethyl)phenyl)acetic acid]
< 1000	NCc1cc(-c2cc(COc3ccccc3CC(=O)O)cc3c(F)coc23)ccn1 [Compound 47c, 2-(2-((7-(2-(aminomethyl)pyridin-4-yl)-3-fluorobenzofuran-5-yl)methoxy)phenyl)acetic acid]
< 1000	CC(N)c1ccc(CC(=O)O)c(OCc2cc(-c3cccc(CN)c3)c3occc3c2)c1 (single isomer, unassigned; (-)) [Compound 61a, (−)-2-(4-(1-aminoethyl)-2-((7-(3-(aminomethyl)phenyl)benzofuran-5-yl)methoxy)phenyl)acetic acid]
< 1000	Cn1cc(-c2c(COc3ccccc3CC(=O)O)cc(-c3cccc(CN)c3)c3occc23)cn1 [Compound 78e, 2-(2-((7-(3-(aminomethyl)phenyl)-4-(1-methyl-1H-pyrazol-4-yl)benzofuran-5-yl)methoxy)phenyl)acetic acid]
< 1000	CC(=O)c1ccc(CC(=O)O)c(OCc2cc(-c3ccnc(CN)c3F)c3occ(C(F)(F)F)c3c2)c1 [Compound 13f, 2-(4-acetyl-2-((7-(2-(aminomethyl)-3-fluoropyridin-4-yl)-3-(trifluoromethyl)benzofuran-5-yl)methoxy)phenyl)acetic acid]
< 1000	COCOc1c(COc2ccccc2CC(=O)O)cc(-c2cccc(CN)c2)c2occc12 [Compound 81h, 2-(2-((7-(3-(aminomethyl)phenyl)-4-(methoxymethoxy)benzofuran-5-yl)methoxy)phenyl)acetic acid]
< 1000	NCc1cccc(-c2cc(COc3ccccc3C(NC(=O)C3CC3)C(=O)O)cc3ccoc23)c1 (single isomer, unassigned; (+)) [Compound 52f, (+)-2-(2-((7-(3-(aminomethyl)phenyl)benzofuran-5-yl)methoxy)phenyl)-2-(cyclopropanecarboxamido)acetic acid]
< 1000	NCc1cccc(-c2cc(COc3cc(C(=O)O)ccc3CC(=O)O)cc3ccoc23)c1 [Compound 9d, 3-((7-(3-(aminomethyl)phenyl)benzofuran-5-yl)methoxy)-4-(carboxymethyl)benzoic acid]
